Test results from ChEMBL document CHEMBL3872241, “Synthesis and bioactivity evaluation of 2,3-diaryl acrylonitrile derivatives as potential anticancer agents” (Bioorg Med Chem Lett, 2017).
pIC50: −log10 of the molar value.

Assays:
[1] = Cytotoxicity against human Bel7402 cells assessed as cell growth inhibition after 48 hrs by MTT assay; type: functional, cell-based; settings: Bel-7402, 48 h
[2] = Cytotoxicity against human L02 cells assessed as cell growth inhibition at 100 uM after 48 hrs by MTT assay; type: toxicity, cell-based; settings: read-out: GI
[3] = test system: HCT-116; assay: Selectivity index, ratio of IC50 for human L02 cells to IC50 for human HCT116 cells; type: functional
[4] = test system: Bel-7402; assay: Selectivity index, ratio of IC50 for human L02 cells to IC50 for human Bel7402 cells; type: functional
[5] = Cytotoxicity against human L02 cells assessed as cell growth inhibition after 48 hrs by MTT assay; type: toxicity, cell-based
[6] = Cytotoxicity against human HeLa cells assessed as cell growth inhibition after 48 hrs by MTT assay; type: functional, cell-based
[7] = Cytotoxicity against human HCT116 cells assessed as cell growth inhibition after 48 hrs by MTT assay; type: functional, cell-based; settings: HCT-116, 48 h
[8] = Cytotoxicity against human HeLa cells assessed as cell growth inhibition at 100 uM after 48 hrs by MTT assay; type: functional; settings: read-out: GI
[9] = Cytotoxicity against human Bel7402 cells assessed as cell growth inhibition at 100 uM after 48 hrs by MTT assay; type: functional; settings: Bel-7402, 48 h, read-out: GI

Structure (SMILES)	pIC50 [1]	inhibition at 48 h, 100 µM [2] [%]	Ratio IC50 [3]	Ratio IC50 [4]	IC50 at 48 h [5] [µM]	pIC50 [6]	pIC50 [7]	inhibition of growth at 100 µM [8] [%]	inhibition of growth at 100 µM [9] [%]
CCc1ccc(/C=C(\C#N)c2cc(OC)cc(OC)c2)cc1	6.46	32.8	>76.92	>285.71	> 100	< 4.00	5.89	40.6	–
COc1cc(OC)cc(/C(C#N)=C/c2ccc(Cl)cc2)c1	5.09	33.6	>2.31	>12.43	> 100	4.80	4.36	–	–
COc1cc(OC)cc(/C(C#N)=C/c2ccco2)c1	4.12	38.5	>30.21	>1.32	> 100	3.95	5.48	–	–
COc1cc(OC)cc(/C(C#N)=C/c2cccc(F)c2)c1	4.21	96	>2.63	>1.63	96	< 4.00	4.42	41.7	–
COc1cc(OC)cc(/C(C#N)=C/c2cccc3ccccc23)c1	4.58	–	3.59	2.78	73.6	< 4.00	4.69	44.9	–
COc1cc(OC)cc(/C(C#N)=C/c2cccs2)c1	4.44	41.7	>3.16	>2.73	> 100	< 4.00	4.50	42.2	–
COc1cc(OC)cc(/C(C#N)=C/c2ccc(C(F)(F)F)cc2)c1	4.56	22.9	>4.58	>3.62	> 100	< 4.00	4.66	48.2	–
COc1cc(OC)cc(/C(C#N)=C/c2ccc(C)cc2)c1	6.23	23.1	>50	>169.49	> 100	< 4.00	5.70	38.6	–
CCCOc1ccc(/C=C(\C#N)c2cc(OC)cc(OC)c2)cc1	4.38	34.4	>7.06	>2.38	> 100	< 4.00	4.85	27.6	–
COc1cc(OC)cc(/C(C#N)=C/c2ccccc2F)c1	4.14	34.6	>8.19	>1.38	> 100	< 4.00	4.91	44.4	–
COc1cc(OC)cc(/C(C#N)=C/c2ccccc2Cl)c1	4.55	11.8	>11.57	>3.51	> 100	4.55	5.06	–	–
COc1cc(OC)cc(/C(C#N)=C/c2ccc(N(C)C)cc2)c1	5.76	26.8	>169.49	>57.47	> 100	< 4.00	6.23	44.4	–
COc1cc(OC)cc(/C(C#N)=C/c2ccccn2)c1	4.09	–	14.66	0.94	75.5	4.25	5.29	–	–
COc1cc(OC)cc(/C(C#N)=C/c2ccccc2Br)c1	< 4.00	8.2	>11.84	–	> 100	< 4.00	5.07	37.2	17.4
